Assays:
[1] = tested on: hepatic disorder caused by carbon tetrachloride (liver injury, plasma glutamic pyruvic transaminase); experiment: Effect of suppressing hepatic disorder caused by carbon tetrachloride; assay type: in vivo, mice (dd-strain, male); parameters: key to Liver injury index: liver injury index 0 = healthy, 2 slight, 4 evident, 6 serious injury; details: 30 mg/kg oral, 6 h before CCl4 0.05 ml/kg oral, 24 h after CCl4, mean of five mice; for Liver injury index: 0 healthy, 2 slightly affected, 4 evident injury, 6 serious injury; for p-GPT (plasma glutamic pyruvic transaminase activity): Reitman-Frankel, Karmen Units, >=2,100 calculated as 2,100
Description: Test Example 1 Effect of suppressing hepatic disorder caused by carbon tetrachloride. Test Method […] Six hours thereafter, carbon tetrachloride was orally administered in a proportion of 0.05 ml/kg. The animals were sacrificed 24 hours after the administration of carbon tetrachloride, and the extent of liver injury was grossly examined. On the other hand, blood was collected from the animal at the time of the sacrifice, and centrifuged to obtain plasma. The plasma glutamic pyruvic transminase (GPT) activity was determined according to the method of Reitman-Frankel. The activity was expressed in terms of Karmen Units (K.U.). The conditions of the liver were expressed in terms of liver injury index as follows. […] When the GPT activity was 2,100 units or higher, […], and the activity was calculated as 2,100 units for reasons of convenience.

[2] = acute oral toxicity to male rat (LD50); details: in vivo
Description: For example, LD50 value (acute oral toxicity to male rat) of the compound No. 20 is more than 1,000 mg/kg.

Structure (SMILES)	Liver injury index [1]	p-GPT (plasma glutamic pyruvic transaminase activity) [1]	LD50 [2] [mg/kg]
CCOC(=O)C(C(=O)OCC)=C1SC2NCCNC2S1 (stereo not drawn) [Compound 1]	2.0	225 K.U.	
CC(C)OC(=O)C(C(=O)OC(C)C)=C1SC2NCCNC2S1 (stereo not drawn) [Compound 2, Diisopropyl(2,5-diaza-7,9-dithiabicyclo-[4,3,0]-nonane-8-ylidene)malonate]	0.3	24.4 K.U.	
CCCOC(=O)C(C(=O)OCCC)=C1SC2NCCNC2S1 (stereo not drawn) [Compound 3]	0.1	53.0 K.U.	
CCCOC(=O)C(C(=O)OCCC)=C1SC2C(S1)N(C(C)=O)CCN2CC (stereo not drawn) [Compound 10]	4.5	2,000 K.U.	
CC(C)OC(=O)C(C(=O)OC(C)C)=C1SC2C(S1)N(C)CCN2C (stereo not drawn) [Compound 16, Diisopropyl(2,5-dimethyl-2,5-diaza-7,9-dithiabicyclo-[4,3,0]-nonane-8-ylidene)malonate]	0.6	32 K.U.	
COC(=O)C(C(=O)OC)=C1SC2C(S1)N(C)CCN2C (stereo not drawn) [Compound 18]	1.8	166 K.U.	
CCOC(=O)C(C(=O)OCC)=C1SC2C(S1)N(C)CCN2C (stereo not drawn) [Compound 19]	1.6	99 K.U.	
CCCOC(=O)C(C(=O)OCCC)=C1SC2C(S1)N(C)CCN2C (stereo not drawn) [Compound 20]			> 1000
CCCCOC(=O)C(C(=O)OCCCC)=C1SC2C(S1)N(C)CCN2C (stereo not drawn) [Compound 23]	1.2	10.2 K.U.	
CCN1CCN(CC)C2SC(=C(C(=O)OC)C(=O)OC)SC21 (stereo not drawn) [Compound 25]	0.4	13.2 K.U.	
CC(C)OC(=O)C(C(=O)OC(C)C)=C1SC2N(C)CCN(C)C2(C)S1 (stereo not drawn) [Compound 28]	1.5	547 K.U.	
CCCCOC(=O)C(C(=O)OCCCC)=C1SC2C(S1)N(CC)CCN2CC (stereo not drawn) [Compound 30]	0.8	22.8 K.U.	
CCN1CCN(CC)C2(C)SC(=C(C(=O)OC(C)C)C(=O)OC(C)C)SC12 (stereo not drawn) [Compound 33]	1.2	925 K.U.	
CCCOC(=O)C(C(=O)OCCC)=C1SC2C(S1)N(CC)CCN2CC (stereo not drawn) [Compound 37]	1.4	143 K.U.	
CCN1CCN(CC)C2SC(=C(C(=O)OC(C)(C)C)C(=O)OC(C)(C)C)SC21 (stereo not drawn) [Compound 40]	1.8	164 K.U.	
C=CCN1CCN(CC=C)C2SC(=C(C(=O)OCCC)C(=O)OCCC)SC21 (stereo not drawn) [Compound 43]	0.2	51 K.U.	
C=CCOC(=O)C(C(=O)OCC=C)=C1SC2C(S1)N(CC=C)CCN2CC=C (stereo not drawn) [Compound 49]	1.2	23.8 K.U.	
COCC(C)OC(=O)C(C(=O)OC(C)COC)=C1SC2C(S1)N(C)CCN2C (stereo not drawn) [Compound 51]	0.4	18.2 K.U.	

Structure (SMILES)	Liver injury index [1]	p-GPT (plasma glutamic pyruvic transaminase activity) [1]	LD50 [2] [mg/kg]
CCOC(=O)C(C(=O)OC)=C1SC2C(S1)N(C)CCN2C (stereo not drawn) [Compound 54]	0	13.4 K.U.	
CCOC(=O)C(C(=O)OC(C)C)=C1SC2C(S1)N(C)CCN2C (stereo not drawn) [Compound 56]	0	16.8 K.U.	
CCCCOC(=O)C(C(=O)OCC)=C1SC2C(S1)N(C)CCN2C (stereo not drawn) [Compound 59]	0.5	109.2 K.U.	
CCC(COC)OC(=O)C(C(=O)OC(CC)COC)=C1SC2C(S1)N(C)CCN2C (stereo not drawn) [Compound 63]	0.5	32.8 K.U.	
CCOC(=O)C(C(=O)OCC(C)C)=C1SC2C(S1)N(CC)CCN2CC (stereo not drawn) [Compound 67]	2.5	1,620 K.U.	
CCCCOC(=O)C(C(=O)OC(C)C)=C1SC2C(S1)N(CC)CCN2CC (stereo not drawn) [Compound 68]	1.5	914.6 K.U.	
CCOC(=O)C(C(=O)OC(C)(C)C)=C1SC2C(S1)N(CC)CCN2CC (stereo not drawn) [Compound 72]	0.4	428.6 K.U.	
Cc1ccc(COC(=O)C(C(=O)OC(C)C)=C2SC3C(S2)N(C)CCN3C)cc1 (stereo not drawn) [Compound 74]	0.6	25 K.U.	
COc1ccc(COC(=O)C(C(=O)OC(C)C)=C2SC3C(S2)N(C)CCN3C)cc1 (stereo not drawn) [Compound 75, Isopropyl 4-methoxybenzyl(2,5-dimethyl-2,5-diaza-7,9-dithiabicycl-[4,3,0]-nonane-8-ylidene)malonate]	0	20 K.U.	
CC(C)OC(=O)C(C(=O)OC(C)c1ccc(Cl)cc1Cl)=C1SC2C(S1)N(C)CCN2C (stereo not drawn) [Compound 79]	1.4	1,060 K.U.	
Cc1ccc(C(C)OC(=O)C(C(=O)OC(C)C)=C2SC3C(S2)N(C)CCN3C)cc1 (stereo not drawn) [Compound 81]	1.2	120 K.U.	
CCOC(=O)C(C(=O)OC(C)c1ccc(Cl)cc1)=C1SC2C(S1)N(C)CCN2C (stereo not drawn) [Compound 83]	0.8	38.6 K.U.	
CCOC(=O)C(C(=O)OC(C)c1ccccc1)=C1SC2C(S1)N(C)CCN2C (stereo not drawn) [Compound 84]	0.8	37 K.U.	
CCC(C)OC(=O)C(C(=O)OC(C)CC)=C1SC2NCCNC2S1 (stereo not drawn) [Compound 87]	0.2	21 K.U.	
CC(C)OC(=O)C(C(=O)OC(C)C)=C1SC2C(S1)N(C)CCN2C (stereo not drawn) [Compound 94]	2.0	1,534 K.U.	
CCCOC(=O)C(C(=O)OCCC)=C1SC2NCCNC2(C)S1.Cl (stereo not drawn) [Compound 96, Di-n-propyl(6-methyl-2,5-diaza-7,9-dithiabicyclo-[4,3,0]-nonane-8-ylidene)malonate hydrochloride salt]	0.1	28.0 K.U.	
CC(C)OC(=O)C(C(=O)OC(C)C)=C1SC2NCCNC2(C)S1 (stereo not drawn) [Compound 97]	0.2	45.0 K.U.	

Source: patent US4835153A, “Malonic acid derivatives” (Nihon Nohyaku Co., Ltd., priority 1986, dated 1989)
